Measurements taken from publication PMC6242839 (Nature Communications, 2018).
≈ marks a conversion by molar mass, not a printed value. Where two headings read alike, the source gives them in different places.

Tests used:
[1] = test system: E. coli K12 spheroplasts; experiment: microbe, parasite or virus in culture; format: cell-based, Escherichia coli
[2] = test system: S. aureus ATCC 29213 protoplasts; experiment: microbe, parasite or virus in culture; format: cell-based, Staphylococcus aureus
[3] = test system: Bacillus cereus ATCC 14579; conditions: cited from earlier work
[4] = test system: B. anthracis Sterne strain; experiment: microbe, parasite or virus in culture; format: cell-based; conditions: Bacillus anthracis, read-out: MIC B. anthracis Sterne
[5] = test system: B. anthracis pathogenic strain (human isolate); experiment: microbe, parasite or virus in culture; format: cell-based; conditions: Bacillus anthracis, read-out: MIC B. anthracis Pathogenic
[6] = test system: B. anthracis ovine strain (animal isolate); experiment: microbe, parasite or virus in culture; format: cell-based; conditions: Bacillus anthracis, read-out: MIC B. anthracis Ovine
[7] = test system: E. faecalis (ATCC 29212); experiment: microbe, parasite or virus in culture; format: cell-based; conditions: Enterococcus faecalis, read-out: MIC E. faecalis
[8] = test system: B. cereus (ATCC 10876); experiment: microbe, parasite or virus in culture; format: cell-based; conditions: Bacillus cereus, read-out: MIC B. cereus
[9] = test system: B. cereus ATCC 14579; experiment: microbe, parasite or virus in culture; format: cell-based, Bacillus cereus
[10] = test system: B. cereus ATCC 14579; experiment: microbe, parasite or virus in culture; format: cell-based, Bacillus cereus; remark: listed apart in the source
[11] = test system: B. cereus ATCC 14579 strains resistant to known antibiotics; experiment: microbe, parasite or virus in culture; format: cell-based, Bacillus cereus
[12] = test system: B. subtilis 168 and knockout mutants; experiment: microbe, parasite or virus in culture; format: cell-based; conditions: Bacillus subtilis
[13] = test system: B. cereus ATCC 14579 mutant library; format: cell-based, Bacillus cereus
[14] = test system: E. coli K12; experiment: microbe, parasite or virus in culture; format: cell-based; conditions: Escherichia coli
[15] = test system: B. cereus ATCC 14579; experiment: microbe, parasite or virus in culture; format: cell-based; conditions: Bacillus cereus, ATCC14579
[16] = test system: B. cereus ATCC 14579 protoplasts; experiment: microbe, parasite or virus in culture; format: cell-based; conditions: Bacillus cereus, ATCC14579
[17] = test system: S. aureus ATCC 29213; experiment: microbe, parasite or virus in culture; format: cell-based; conditions: Staphylococcus aureus, ATCC29213
[18] = test system: B. cereus ATCC 14579 spores and vegetative cells; experiment: microbe, parasite or virus in culture; format: cell-based; conditions: Bacillus cereus
[19] = POPE LUVs, compound 50 µM; for leakage of encapsulated carboxyfluorescein: course of the experiment (14 h)
[20] = POPC LUVs, compound 50 µM
[21] = in vitro; conditions: human
[22] = B. subtilis 168, parental isogenic strain

## Polymyxin B [reference compound]
[1]
  MIC: > 1000 mg/mL
[2]
  MIC: > 1000 mg/mL
[3]
  MIC: 0.781 mg/mL

## CCCCCCCCCCCCO[C@H]1C[C@H](O)[C@@H](O)[C@H](C)O1 [Compound 1]
[4]; 16 h
  MIC: 25 µM (≈ 7.91 µg/mL)
[5]; 16 h
  MIC: 25 µM (≈ 7.91 µg/mL)
[6]; 16 h
  MIC: 25 µM (≈ 7.91 µg/mL)
[7]; ATCC29212, 16 h
  MIC: 50 µM (≈ 15.8 µg/mL)
[8]; ATCC10876, 16 h
  MIC: 25 µM (≈ 7.91 µg/mL)
[9]
  MBC: 0.032 mg/mL (≈ 101 µM)
[9]; Bacillus cereus, ATCC14579
  MBC: 0.016 mg/mL (≈ 50.6 µM)
  MIC: 0.016 mg/mL (≈ 50.6 µM)
[10]
  1000-fold reduction (T99.9): ≤ 60 min
  MBC: 0.032 mg/mL (≈ 101 µM)
[10]; Bacillus cereus, ATCC14579
  MBC: 0.016 mg/mL (≈ 50.6 µM)
[11]; Bacillus cereus, ATCC14579
  MBC: 0.016 mg/mL (≈ 50.6 µM)
  MIC: 0.016 mg/mL (≈ 50.6 µM)
[12]; [22]
  MBC: 0.032 mg/mL (≈ 101 µM)
  MIC: 0.016 mg/mL (≈ 50.6 µM)
[12]; B. subtilis ΔexpZ
  MBC: 0.032 mg/mL (≈ 101 µM)
  MIC: 0.016 mg/mL (≈ 50.6 µM)
[12]; B. subtilis ΔmtlA
  MBC: 0.032 mg/mL (≈ 101 µM)
  MIC: 0.016 mg/mL (≈ 50.6 µM)
[12]; B. subtilis ΔtreP
  MBC: 0.016 mg/mL (≈ 50.6 µM)
  MIC: 0.016 mg/mL (≈ 50.6 µM)
[12]; B. subtilis ΔybbF
  MBC: 0.016 mg/mL (≈ 50.6 µM)
  MIC: 0.016 mg/mL (≈ 50.6 µM)
[12]; B. subtilis ΔybdA
  MBC: 0.032 mg/mL (≈ 101 µM)
  MIC: 0.016 mg/mL (≈ 50.6 µM)
[12]; B. subtilis ΔybdB
  MBC: 0.032 mg/mL (≈ 101 µM)
  MIC: 0.016 mg/mL (≈ 50.6 µM)
[12]; B. subtilis ΔydhO
  MBC: 0.032 mg/mL (≈ 101 µM)
  MIC: 0.016 mg/mL (≈ 50.6 µM)
[12]; B. subtilis ΔyfiB
  MBC: 0.032 mg/mL (≈ 101 µM)
  MIC: 0.032 mg/mL (≈ 101 µM)
[12]; B. subtilis ΔyfiC
  MBC: 0.016 mg/mL (≈ 50.6 µM)
  MIC: 0.016 mg/mL (≈ 50.6 µM)
[12]; B. subtilis ΔyfiM
  MBC: 0.016 mg/mL (≈ 50.6 µM)
  MIC: 0.016 mg/mL (≈ 50.6 µM)
[12]; B. subtilis ΔyfiN
  MBC: 0.032 mg/mL (≈ 101 µM)
  MIC: 0.016 mg/mL (≈ 50.6 µM)
[12]; B. subtilis ΔyflF
  MBC: 0.032 mg/mL (≈ 101 µM)
  MIC: 0.016 mg/mL (≈ 50.6 µM)
[12]; B. subtilis ΔyfmR
  MBC: 0.016 mg/mL (≈ 50.6 µM)
  MIC: 0.016 mg/mL (≈ 50.6 µM)
[12]; B. subtilis ΔygaD
  MBC: 0.016 mg/mL (≈ 50.6 µM)
  MIC: 0.016 mg/mL (≈ 50.6 µM)
[12]; B. subtilis ΔyhaQ
  MBC: 0.016 mg/mL (≈ 50.6 µM)
  MIC: 0.016 mg/mL (≈ 50.6 µM)
[12]; B. subtilis ΔyhcJ
  MBC: 0.016 mg/mL (≈ 50.6 µM)
  MIC: 0.016 mg/mL (≈ 50.6 µM)
[12]; B. subtilis ΔyheH
  MBC: 0.032 mg/mL (≈ 101 µM)
  MIC: 0.016 mg/mL (≈ 50.6 µM)
[12]; B. subtilis ΔyjdD
  MBC: 0.016 mg/mL (≈ 50.6 µM)
  MIC: 0.016 mg/mL (≈ 50.6 µM)
[12]; B. subtilis ΔykfD
  MBC: 0.016 mg/mL (≈ 50.6 µM)
  MIC: 0.016 mg/mL (≈ 50.6 µM)
[12]; B. subtilis ΔyknU
  MBC: 0.032 mg/mL (≈ 101 µM)
  MIC: 0.016 mg/mL (≈ 50.6 µM)
[12]; B. subtilis ΔykoD
  MBC: 0.016 mg/mL (≈ 50.6 µM)
  MIC: 0.016 mg/mL (≈ 50.6 µM)
[12]; B. subtilis ΔykpA
  MBC: 0.032 mg/mL (≈ 101 µM)
  MIC: 0.016 mg/mL (≈ 50.6 µM)
[12]; B. subtilis ΔyvcC
  MBC: 0.032 mg/mL (≈ 101 µM)
  MIC: 0.016 mg/mL (≈ 50.6 µM)
[12]; B. subtilis ΔywbA
  MBC: 0.032 mg/mL (≈ 101 µM)
  MIC: 0.016 mg/mL (≈ 50.6 µM)
[12]; B. subtilis ΔywhQ
  MBC: 0.032 mg/mL (≈ 101 µM)
  MIC: 0.016 mg/mL (≈ 50.6 µM)
[12]; B. subtilis ΔyxdM
  MBC: 0.032 mg/mL (≈ 101 µM)
  MIC: 0.016 mg/mL (≈ 50.6 µM)
[12]; B. subtilis ΔyybL
  MBC: 0.032 mg/mL (≈ 101 µM)
  MIC: 0.016 mg/mL (≈ 50.6 µM)
[13]
  MIC of mutant library compared with the parental strain: MIC values remain unchanged
[14]
  MIC: 0.256 mg/mL (≈ 809 µM)
[1]; Escherichia coli
  MIC: 0.004 mg/mL (≈ 12.6 µM)
[15]
  MIC: 0.016 mg/mL (≈ 50.6 µM)
[16]
  MIC: 0.016 mg/mL (≈ 50.6 µM)
[17]
  MIC: 0.256 mg/mL (≈ 809 µM)
[2]; Staphylococcus aureus, ATCC29213
  MIC: 0.256 mg/mL (≈ 809 µM)
[18]; ATCC14579, 20 min
  MBC: 0.008 mg/mL (≈ 25.3 µM)
[18]; ATCC14579, 0.5 h
  MBC: 0.008 mg/mL (≈ 25.3 µM)
[19]
  time of leakage, τL: about 160 min
  leakage of encapsulated carboxyfluorescein: ~ 100%
[20]
  Lmax value obtained from the fit: < 50%
  time of leakage, τL: about 692 min
[20]; course of the experiment (14 h)
  total membrane leakage: ~ 30%
[21]
  IC50 at 24 h: 100 µM
  IC50 at 48 h: > 50 µM

## CC[C@H]1OC(=O)[C@H](C)[C@@H](O[C@H]2C[C@@](C)(OC)[C@@H](O)[C@H](C)O2)[C@H](C)[C@@H](O[C@@H]2O[C@H](C)C[C@H](N(C)C)[C@H]2O)[C@](C)(O)C[C@@H](C)C(=O)[C@H](C)[C@@H](O)[C@]1(C)O [Erythromycin]
[11]
  MIC of the antibiotic: 0.02 mg/mL
[3]
  MIC: 0.008 mg/mL (≈ 10.9 µM)

## CCCCCCCCCCCCO[C@@H]1C[C@@H](O)[C@H](O)[C@@H](CO)O1 [Compound 13]
[4]; 16 h at 37 °C
  MIC: 386 µM (≈ 128 µg/mL)
[5]; 16 h at 37 °C
  MIC: 12 µM (≈ 3.99 µg/mL)
[6]; 16 h at 37 °C
  MIC: 12 µM (≈ 3.99 µg/mL)
[7]; ATCC29212, 16 h at 37 °C
  MIC: 12 µM (≈ 3.99 µg/mL)
[8]; ATCC10876, 16 h at 37 °C
  MIC: 386 µM (≈ 128 µg/mL)
[9]; Bacillus cereus, ATCC14579
  MBC: 0.128 mg/mL (≈ 385 µM)
  MIC: 0.128 mg/mL (≈ 385 µM)
[19]
  time of leakage, τL: about 326 min
  leakage of encapsulated carboxyfluorescein: ~ 10%
[20]
  time of leakage, τL: ~256 min
[21]
  IC50 at 24 h: 100 µM
  IC50 at 48 h: > 50 µM
